Drawing on PubChem BioAssay AID1259407 (Chemical Carcinogenesis Research Information System (CCRIS), 2018), this text covers mutagenic call for three compounds.

Structures are written as SMILES. Active and inactive are the calls of the source. The rule behind the calls is not given here.

This series relates to CCRIS mutagenicity, Ames/micronucleus/aberration tests. The experiment in a line: CCRIS mutagenicity studies.
The mark [1] stands for this setting: Test System: AMES SALMONELLA TYPHIMURIUM, Strain/Indicator: TA98, Metabolic Activation: NONE, Method: PREINCUBATION
[2] abbreviates: Test System: AMES SALMONELLA TYPHIMURIUM, Strain/Indicator: TA98, Metabolic Activation: NONE, Method: STANDARD PLATE.
The mark [3] stands for this setting: Test System: AMES SALMONELLA TYPHIMURIUM, Strain/Indicator: TA100, Metabolic Activation: NONE, Method: PREINCUBATION

For `c1cc2ccc3cccc4ccc(c1)c2c34`, the mutagenic call by setting is: (End Point: IN VITRO MICRONUCLEUS, Test System: CHO CELLS, Metabolic Activation: RAT, LIVER, S-9, AROCLOR 1254) “inactive; negative”; (End Point: IN VITRO MICRONUCLEUS, Test System: V79 CELLS, Metabolic Activation: NONE) “inactive; negative”; (Test System: AMES SALMONELLA TYPHIMURIUM, Strain/Indicator: TA97, Metabolic Activation: NONE, Method: STANDARD PLATE) “inactive; negative”; (Test System: AMES SALMONELLA TYPHIMURIUM, Strain/Indicator: TA97, Metabolic Activation: RAT, LIVER, S-9, AROCLOR 1254, Method: STANDARD PLATE) “active; positive”; (Test System: AMES SALMONELLA TYPHIMURIUM, Strain/Indicator: TA97, Metabolic Activation: RAT, LIVER, S-9, PCB, Method: STANDARD PLATE) “active; positive”; (Test System: AMES SALMONELLA TYPHIMURIUM, Strain/Indicator: TA97A, Metabolic Activation: RAT, LIVER, S-9, AROCLOR 1254, Method: STANDARD PLATE) “active; positive”. Moreover, the mutagenic call is, setting by setting: under setting [1], “inactive; negative”; under setting [2], “inactive; negative”; (Test System: AMES SALMONELLA TYPHIMURIUM, Strain/Indicator: TA98, Metabolic Activation: RAT, LIVER, S-9, AROCLOR 1254, Method: PREINCUBATION) “inactive; negative”; (Test System: AMES SALMONELLA TYPHIMURIUM, Strain/Indicator: TA98, Metabolic Activation: RAT, LIVER, S-9, AROCLOR 1254, Method: STANDARD PLATE) “inactive; negative”; (Test System: AMES SALMONELLA TYPHIMURIUM, Strain/Indicator: TA98, Metabolic Activation: RAT, LIVER, S-9, PCB, Method: STANDARD PLATE) “active; positive”; (Test System: AMES SALMONELLA TYPHIMURIUM, Strain/Indicator: TA100, Metabolic Activation: MOUSE, LIVER, MICROSOMES, BENZO[E]PYRENE AND TCDD, Method: STANDARD PLATE) “inactive; negative”. In addition, the mutagenic call was “inactive; negative” under setting [3]; “inactive; negative” (Test System: AMES SALMONELLA TYPHIMURIUM, Strain/Indicator: TA100, Metabolic Activation: NONE, Method: STANDARD PLATE); “inactive; negative” (Test System: AMES SALMONELLA TYPHIMURIUM, Strain/Indicator: TA100, Metabolic Activation: RAT, LIVER, S-9, AROCLOR 1254, Method: PREINCUBATION); “inactive; negative” (Test System: AMES SALMONELLA TYPHIMURIUM, Strain/Indicator: TA100, Metabolic Activation: RAT, LIVER, S-9, PCB, Method: STANDARD PLATE); “active; positive” (Test System: AMES SALMONELLA TYPHIMURIUM, Strain/Indicator: TA1537, Metabolic Activation: RAT, LIVER, S-9, AROCLOR 1254, Method: STANDARD PLATE); “inactive; negative” (Test System: CHINESE HAMSTER OVARY, Strain/Indicator: CHO (HGPRT)/6-THIOGUANINE, Metabolic Activation: NONE, Method: STANDARD PLATE). The mutagenic call is “inactive; negative” (Test System: CHINESE HAMSTER OVARY, Strain/Indicator: CHO (HGPRT)/6-THIOGUANINE, Metabolic Activation: RAT, LIVER, S-9, AROCLOR 1254, Method: STANDARD PLATE); “inactive; negative” (Test System: CHINESE HAMSTER OVARY, Strain/Indicator: CHO-K1-BH4 (HGPRT)/6-THIOGUANINE, Metabolic Activation: NONE, Method: SUSPENSION/PLATE); “inactive; negative” (Test System: CHINESE HAMSTER OVARY, Strain/Indicator: CHO-K1-BH4 (HGPRT)/6-THIOGUANINE, Metabolic Activation: S-9, Method: SUSPENSION/PLATE); “inactive; negative” (Test System: CHINESE HAMSTER OVARY, Strain/Indicator: CHO-K1-BH4 (HGPRT), Metabolic Activation: NONE, Method: SUSPENSION/PLATE); “inactive; negative” (Test System: CHINESE HAMSTER OVARY, Strain/Indicator: CHO-K1-BH4 (HGPRT), Metabolic Activation: RAT, LIVER, S-9, AROCLOR, Method: SUSPENSION/PLATE); “inactive; negative” (Test System: E. COLI, Strain/Indicator: WP2 UVRA, Metabolic Activation: HAMSTER, LIVER, S-9, AROCLOR 1254, Method: STANDARD PLATE). For the same compound, the mutagenic call was “inactive; negative” (Test System: E. COLI, Strain/Indicator: WP2 UVRA, Metabolic Activation: HAMSTER, LIVER, S-9, Method: STANDARD PLATE); “inactive; negative” (Test System: E. COLI, Strain/Indicator: WP2 UVRA, Metabolic Activation: MOUSE, LIVER, S-9, AROCLOR 1254, Method: STANDARD PLATE); “inactive; negative” (Test System: E. COLI, Strain/Indicator: WP2 UVRA, Metabolic Activation: MOUSE, LIVER, S-9, Method: STANDARD PLATE); “inactive; negative” (Test System: E. COLI, Strain/Indicator: WP2 UVRA, Metabolic Activation: NONE, Method: STANDARD PLATE); “inactive; negative” (Test System: E. COLI, Strain/Indicator: WP2 UVRA, Metabolic Activation: RAT, LIVER, S-9, AROCLOR 1254, Method: STANDARD PLATE); “inactive; negative” (Test System: E. COLI, Strain/Indicator: WP2 UVRA, Metabolic Activation: RAT, LIVER, S-9, Method: STANDARD PLATE). The mutagenic call runs as follows: (Test System: MOUSE LYMPHOMA, Strain/Indicator: L5178Y (TK+/TK-), Metabolic Activation: NONE, Method: SUSPENSION/PLATE) “inactive; negative”; (Test System: MOUSE LYMPHOMA, Strain/Indicator: L5178Y (TK+/TK-), Metabolic Activation: RAT, LIVER, S-9, AROCLOR 1254, Method: SUSPENSION/PLATE) “active; positive”; (Test System: MOUSE LYMPHOMA, Strain/Indicator: L5178Y (TK+/TK-), Metabolic Activation: S-9, Method: SUSPENSION/PLATE) “active; positive”; (Test System: UDS RAT HEPATOCYTES, Strain/Indicator: BROMODEOXYURIDINE INCORP, Metabolic Activation: NONE, Method: FLOW CYTOMETRIC ANALYSIS) “inactive; negative”; (Test System: UDS RAT HEPATOCYTES, Strain/Indicator: THY INCORP, Metabolic Activation: NONE, Method: AUTORADIOGRAPHY) “inactive; negative”; (Test System: UDS RODENT HEPATOCYTES, Strain/Indicator: THY INCORP, Metabolic Activation: NONE, Method: AUTORADIOGRAPHY) “inactive; negative”. In addition, under “Test System: UDS, Strain/Indicator: HEPG2/THYMIDINE INCORPORATION, Metabolic Activation: NONE, Method: AUTORADIOGRAPHY”, the mutagenic call was “inactive; negative”.

Turning to `Cc1cnc2ccc3c(nc(NO)n3C)c2n1`, under setting [2], the mutagenic call was “active; positive”.

Turning to `C=C(C)/C([O-])=N/[N+](C)(C)CC(C)O` (stereo not given), the mutagenic call (Test System: AMES SALMONELLA TYPHIMURIUM, Strain/Indicator: TA97, Metabolic Activation: HAMSTER, LIVER, S-9, AROCLOR 1254 (10 OR 30%), Method: PREINCUBATION) is “inactive; negative”; the mutagenic call (Test System: AMES SALMONELLA TYPHIMURIUM, Strain/Indicator: TA97, Metabolic Activation: NONE, Method: PREINCUBATION) was “inactive; negative”; the mutagenic call (Test System: AMES SALMONELLA TYPHIMURIUM, Strain/Indicator: TA97, Metabolic Activation: RAT, LIVER, S-9, AROCLOR 1254 (10 OR 30%), Method: PREINCUBATION) was “inactive; negative”; the mutagenic call (Test System: AMES SALMONELLA TYPHIMURIUM, Strain/Indicator: TA98, Metabolic Activation: HAMSTER, LIVER, S-9, AROCLOR 1254 (10 OR 30%), Method: PREINCUBATION) is “inactive; negative”; the mutagenic call under setting [1] was “inactive; negative”; the mutagenic call (Test System: AMES SALMONELLA TYPHIMURIUM, Strain/Indicator: TA98, Metabolic Activation: RAT, LIVER, S-9, AROCLOR 1254 (10 OR 30%), Method: PREINCUBATION) was “inactive; negative”. The mutagenic call is “inactive; negative” (Test System: AMES SALMONELLA TYPHIMURIUM, Strain/Indicator: TA100, Metabolic Activation: HAMSTER, LIVER, S-9, AROCLOR 1254 (10 OR 30%), Method: PREINCUBATION); “inactive; negative” under setting [3]; “inactive; negative” (Test System: AMES SALMONELLA TYPHIMURIUM, Strain/Indicator: TA100, Metabolic Activation: RAT, LIVER, S-9, AROCLOR 1254 (10 OR 30%), Method: PREINCUBATION); “inactive; negative” (Test System: AMES SALMONELLA TYPHIMURIUM, Strain/Indicator: TA1535, Metabolic Activation: HAMSTER, LIVER, S-9, AROCLOR 1254 (10 OR 30%), Method: PREINCUBATION); “inactive; negative” (Test System: AMES SALMONELLA TYPHIMURIUM, Strain/Indicator: TA1535, Metabolic Activation: NONE, Method: PREINCUBATION); “inactive; negative” (Test System: AMES SALMONELLA TYPHIMURIUM, Strain/Indicator: TA1535, Metabolic Activation: RAT, LIVER, S-9, AROCLOR 1254 (10 OR 30%), Method: PREINCUBATION).
